Results as given in patent US20020137209A1, “Methods of dissociating nongenotropic from genotropic activity of steroid receptors” (priority 2000, published 2002).
Ends that are not written are not given here.

Tests used:
[1] = system: osteocytic cell line MLO-Y4; test: Apoptosis of MLO-Y4 osteocytic cells (trypan blue); format: cell-based; settings: inhibitor 30 min prior to E2 or DHT; etoposide 6 hours
[2] = system: ERK1/2; test: ERK phosphorylation in MLO-Y4 cells (Western blot); format: cell-based; settings: inhibitor 25 min, then 5 min E2 or DHT
Description: Western blot analysis. The phosphorylation status of ERK1/2 was analyzed by immunoblotting using a mouse monoclonal antibody recognizing tyrosine phosphorylated ERK1/2, or a rabbit polyclonal antibody recognizing total ERK1/2, followed by incubation with either an anti-mouse or an anti-rabbit antibody conjugated with horseradish peroxidase (Santa Cruz Biotechnology).

[3] = system: E domain of the ER; test: Etoposide-induced apoptosis in HeLa cells transfected with the E domain of ERα; format: cell-based, human
Description: (§1) DNA constructs. […] Bio. […] The sequence for peptide αII is […] (SEQ ID NO.: 1). […] (SEQ ID NO.: 3). The sequence for GRIP is […] […] […] (SEQ ID NO.: 4). […] The forward primer contained the restriction site for SalI and the ERα Kozak sequence and the reverse primer contained the BamH1 restriction site. Amplified PCR products were subcloned into the SalI/BamH1 restriction site of pCMV.
(§2) Transient transfections. HeLa cells were plated at 5×10^4/cm^2 and after 16-24 hours were transfected with a total amount of 3 μg of DNA using Lipofectamine (Life Technologies Inc). Following a 4-6 hours of incubation, the transfection mix was replaced with fresh medium containing 10% charcoal-stripped serum and treatments were initiated.

[4] = biological target: T1, AR (Homo sapiens, UniProt P10275); test: Etoposide-induced apoptosis in HeLa cells transfected with AR
T1 sequence (P10275 1-920): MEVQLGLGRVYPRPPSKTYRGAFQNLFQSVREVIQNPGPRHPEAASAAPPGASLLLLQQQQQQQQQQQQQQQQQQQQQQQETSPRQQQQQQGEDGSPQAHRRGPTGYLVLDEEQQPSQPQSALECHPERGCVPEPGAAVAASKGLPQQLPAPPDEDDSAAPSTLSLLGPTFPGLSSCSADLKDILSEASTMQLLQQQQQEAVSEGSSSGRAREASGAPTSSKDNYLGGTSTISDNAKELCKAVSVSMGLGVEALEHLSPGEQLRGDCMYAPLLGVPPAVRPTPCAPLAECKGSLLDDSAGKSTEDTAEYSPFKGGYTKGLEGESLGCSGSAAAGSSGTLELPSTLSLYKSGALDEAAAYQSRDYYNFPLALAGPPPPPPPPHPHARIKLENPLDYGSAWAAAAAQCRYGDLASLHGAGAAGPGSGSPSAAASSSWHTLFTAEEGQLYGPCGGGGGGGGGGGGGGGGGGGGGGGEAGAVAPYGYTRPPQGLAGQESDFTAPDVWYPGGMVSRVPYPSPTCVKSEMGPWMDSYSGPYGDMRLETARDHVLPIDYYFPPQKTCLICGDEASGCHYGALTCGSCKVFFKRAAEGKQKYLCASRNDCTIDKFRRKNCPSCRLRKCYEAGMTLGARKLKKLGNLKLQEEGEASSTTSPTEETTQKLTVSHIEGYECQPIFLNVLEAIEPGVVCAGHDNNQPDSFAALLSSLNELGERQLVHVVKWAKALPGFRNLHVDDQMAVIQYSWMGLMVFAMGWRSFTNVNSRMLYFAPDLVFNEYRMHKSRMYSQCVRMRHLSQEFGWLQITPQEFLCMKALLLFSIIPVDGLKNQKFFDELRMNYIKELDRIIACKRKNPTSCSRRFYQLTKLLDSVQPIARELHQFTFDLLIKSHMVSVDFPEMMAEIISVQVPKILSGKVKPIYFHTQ

[5] = biological target: T2, ERα (Homo sapiens, UniProt P03372); test: Etoposide-induced apoptosis in HeLa cells transfected with ERα
T2 sequence (P03372 1-595): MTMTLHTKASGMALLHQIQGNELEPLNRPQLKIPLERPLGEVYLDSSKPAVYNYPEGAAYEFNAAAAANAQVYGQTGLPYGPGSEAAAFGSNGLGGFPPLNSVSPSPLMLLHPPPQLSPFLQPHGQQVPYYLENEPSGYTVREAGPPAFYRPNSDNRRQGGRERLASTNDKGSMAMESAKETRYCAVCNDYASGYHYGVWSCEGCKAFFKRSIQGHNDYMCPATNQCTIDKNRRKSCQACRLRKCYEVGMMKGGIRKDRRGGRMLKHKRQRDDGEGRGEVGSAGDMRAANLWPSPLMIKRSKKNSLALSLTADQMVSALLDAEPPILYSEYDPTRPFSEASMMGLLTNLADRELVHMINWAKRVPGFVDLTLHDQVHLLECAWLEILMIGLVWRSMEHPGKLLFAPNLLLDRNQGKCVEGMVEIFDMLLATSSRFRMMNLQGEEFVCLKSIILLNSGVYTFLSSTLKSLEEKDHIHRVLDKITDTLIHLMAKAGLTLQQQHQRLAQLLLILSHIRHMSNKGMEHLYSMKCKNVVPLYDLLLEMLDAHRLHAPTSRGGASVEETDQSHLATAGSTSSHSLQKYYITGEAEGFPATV

[6] = system: calvaria-derived murine osteoblastic cells; test: Apoptosis of calvaria-derived osteoblastic cells (trypan blue); settings: etoposide-induced apoptosis
[7] = biological target: T2, ERα; test: C3-luc transcription in HeLa cells transfected with ERα; format: cell-based; design: expression vectors encoding the full length ERα or its E domain; expressed in transfected cells; host or cells: HeLa; settings: HeLa with C3-luc and ERα
Description: A. For C3-mediated transcription, HeLa cells were transfected with C3-luc and ERα, and were treated with the indicated concentrations of an estren or a pyrazole. Bars represent the mean±SD of the relative luciferase units (RLU) normalized for β-galactosidase activity. p<0.05 versus cells transfected with empty vector (ev), by ANOVA. The anti-apoptotic activity of the estren and the pyrazole was evaluated in calvaria-derived osteoblasts as described in FIG. 1B. * p<0.05 versus cells not treated with etoposide by ANOVA. B. MLO-Y4 cells were incubated for 5, min with the indicated concentrations of the different ligands and ERK phosphorylation was assessed as in FIG. 4A.
DNA constructs. Reporter plasmids carrying the 2.25 Kb of the human IL-6 promoter, 3 copies of the vitellogenin ERE sequences, or the complement 3 promoter driving the firefly luciferase gene (IL-6-luc, ERE-luc, and C3-luc, respectively) were used to assay transcriptional effects of the steroids. The expression plasmids of ER peptide antagonists carrying either αII, or two copies of 293 (2x293) , or two copies of F6 (2xF6) or GRIP fused to the GAL4 DNA binding domain driven by the SV40 promoter have been described previously (Norris, J. D. et al. (1999) Science 285, 744-746). The sequences of the peptides are disclosed in Chang et al. (1999) Mol. Cell. Bio. 19:8226-8239 which is incorporated herein in its entirety. […]

[8] = system: retinoid X receptor (RXR); test: Etoposide-induced apoptosis in HeLa cells transfected with RXR
[9] = biological target: T3, ERβ (Homo sapiens, UniProt Q92731); test: ERE-luc transcription in HeLa cells transfected with ERβ; format: cell-based; design: expressed in transfected cells; host or cells: HeLa; settings: ERβ carrying HeLa cells, 10^−8 M E2
T3 sequence (Q92731 whole entry, species assumed, the tested form may be a part): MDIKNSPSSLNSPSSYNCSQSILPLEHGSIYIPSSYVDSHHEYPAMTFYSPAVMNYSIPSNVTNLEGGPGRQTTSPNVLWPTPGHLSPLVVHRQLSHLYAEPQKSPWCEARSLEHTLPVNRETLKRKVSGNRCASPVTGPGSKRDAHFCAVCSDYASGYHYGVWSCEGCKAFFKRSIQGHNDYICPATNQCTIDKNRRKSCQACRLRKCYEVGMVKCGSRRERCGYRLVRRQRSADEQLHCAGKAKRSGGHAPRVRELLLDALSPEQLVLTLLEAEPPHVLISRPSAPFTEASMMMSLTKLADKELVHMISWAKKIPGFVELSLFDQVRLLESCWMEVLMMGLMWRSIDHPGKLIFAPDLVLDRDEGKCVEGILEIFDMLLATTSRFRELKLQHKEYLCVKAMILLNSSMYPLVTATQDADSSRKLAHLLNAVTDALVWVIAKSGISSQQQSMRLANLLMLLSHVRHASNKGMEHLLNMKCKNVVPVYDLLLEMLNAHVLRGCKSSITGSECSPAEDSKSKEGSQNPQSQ
Description: (§3) A. HeLa cells were transiently transfected with the ERα expression vector alone or together with a vector carrying a fusion of the α-II peptide with the GAL4 DNA binding domain driven by the SV40 promoter. In addition, cells were transfected with ERE-luc or IL-6-luc for the transcription studies; or with EGFP-nuc for the apoptosis experiments. […] B. HeLa cells were transfected with ERα or ERβ alone or together with expression vectors carrying 2X293 or 2XF6 peptides. […] C. HeLa cells were transfected with a vector carrying the GRIP peptide alone or together with ERα.
as §1, §2

[10] = biological target: T3, ERβ; test: IL-6-luc transcription in HeLa cells transfected with ERβ; format: cell-based; design: expressed in transfected cells; host or cells: HeLa; settings: ERβ carrying HeLa cells, 10^−8 M E2
Description: as §3, §1, §2

[11] = biological target: T3, ERβ; test: Etoposide-induced apoptosis in HeLa cells transfected with ERβ; settings: peptide co-transfected, 10^−8 M E2
[12] = biological target: T2, ERα; test: ERE-luc transcription in HeLa cells transfected with ERα; format: cell-based; design: expression vectors encoding the full length ERα or its E domain; expressed in transfected cells; host or cells: HeLa; settings: ERα carrying HeLa cells, 10^−8 M E2
Description: as §3, §1, §2

[13] = biological target: T2, ERα; test: IL-6-luc transcription in HeLa cells transfected with ERα; format: cell-based; design: expression vectors encoding the full length ERα or its E domain; expressed in transfected cells; host or cells: HeLa; settings: ERα carrying HeLa cells, 10^−8 M E2
Description: as §3, §1, §2

COc1cccc(-c2cc(=O)c3ccccc3o2)c1N [PD98059]
effect of inhibitor on the anti-apoptotic effect of E2 and DHT [1]: completely abrogated
effect of inhibitor on induction of ERK phosphorylation by E2 or DHT [2]: blocked
effect of inhibitor on anti-apoptotic activity, compared with full length ERα [3]: exactly the same effects
effect of antagonist/inhibitor on the anti-apoptotic effect of E2 or DHT [4]: abrogated
effect of antagonist/inhibitor on the anti-apoptotic effect of E2 or DHT ([5]; HeLa transfected with ERα): abrogated

c1cn[nH]c1 [pyrazole]
anti-apoptotic efficacy on primary calvaria cells [6]: minimal anti-apoptotic efficacy
transcriptional activity on the C3 gene (C3-luc) [7]: potent transcriptional activity

C=C1/C(=C\C=C2/CCC[C@]3(C)[C@@H]([C@H](C)CCCC(C)(C)O)CC[C@@H]23)C[C@@H](O)C[C@@H]1O [1,25(OH)2D3, 1,25-dihydroxy-Vitamin D3]
prevention of etoposide-induced apoptosis [8]: prevented apoptosis

estren
anti-apoptotic efficacy on primary calvaria cells [6]: potent anti-apoptotic efficacy
transcriptional activity on the C3 gene (C3-luc) [7]: no transcriptional activity

F6: peptide GHEPLTLLERLLMDDKQAV (SEQ ID NO.: 3) interacting with both ERα and ERβ; two copies expressed as GAL4 fusion (also: two copies fused to GAL4 DNA binding domain)
effect of peptide on E2-induced ERE-Luc transcription [9]: blocked
effect of peptide on E2 effect on IL-6-Luc transcription [10]: blocked
effect of peptide on the anti-apoptotic activity of ERα (E2) ([5]; peptide co-transfected, 10^−8 M E2): blocked
effect of peptide on the anti-apoptotic activity of ERβ (E2) [11]: blocked
effect of peptide on E2-induced ERE-Luc transcription [12]: blocked
effect of peptide on E2-induced decrease in IL-6-Luc transcription [13]: blocked
